# What was measured:
# Experiment in all cases: relative viability (nuclei count vs DMSO), 5 days (fraction); higher = more cells survive
# [1] = compound: COc1cc2nccc(Oc3ccc(NC(=O)C4(C(=O)Nc5ccc(F)cc5)CC4)cc3)c2cc1OC [Cabozantinib] + CC(=O)c1c(C)c2cnc(Nc3ccc(N4CCNCC4)cn3)nc2n(C2CCCC2)c1=O [Palbociclib] (partner 0.5 µM)
# Outline: (§1)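 Medians of duplicate plates are given as relative viability. That measure is the nuclei count in treated wells divided by the count in vehicle wells. Counts were taken on 4× images of lung cancer cell lines in 1536-well plates, 5 days after pin-tool dosing the day after seeding with one drug alone or a fixed anchor-drug dose plus five library-drug doses (not always all listed) in √10 steps.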
# [2] = compound: COc1cc2nccc(Oc3ccc(NC(=O)C4(C(=O)Nc5ccc(F)cc5)CC4)cc3)c2cc1OC [Cabozantinib] + C[C@]1(O)C[C@@H](c2nc(-c3ccc4ccc(-c5ccccc5)nc4c3)c3c(N)nccn32)C1 [Linsitinib] (partner 1 µM)
# Outline: as §1
# [3] = compound: COc1cc2nccc(Oc3ccc(NC(=O)C4(C(=O)Nc5ccc(F)cc5)CC4)cc3)c2cc1OC [Cabozantinib] + O=C(CCCCCCC(=O)Nc1ccccc1)NO [Vorinostat] (partner 1 µM)
# Outline: as §1
# [4] = compound: O[C@@H](COc1cccc2ncccc12)CN1CCN([C@@H]2c3ccccc3[C@@H]3[C@H](c4ccccc42)C3(F)F)CC1 [Zosuquidar] + C[C@]1(O)C[C@@H](c2nc(-c3ccc4ccc(-c5ccccc5)nc4c3)c3c(N)nccn32)C1 [Linsitinib] (partner 1 µM)
# Outline: as §1
Cell Line,relative viability ([1]; first compound 0.02 µM),relative viability ([1]; first compound 0.06325 µM),relative viability ([1]; first compound 0.2 µM),relative viability ([1]; first compound 0.6325 µM),relative viability ([1]; first compound 2 µM),relative viability ([2]; first compound 0.02 µM),relative viability ([2]; first compound 0.06325 µM),relative viability ([2]; first compound 0.6325 µM),relative viability ([2]; first compound 2 µM),relative viability ([3]; first compound 0.02 µM),relative viability ([3]; first compound 0.06325 µM),relative viability ([3]; first compound 0.2 µM),relative viability ([3]; first compound 0.6325 µM),relative viability ([3]; first compound 2 µM),relative viability ([4]; first compound 0.01 µM),relative viability ([4]; first compound 0.03162 µM),relative viability ([4]; first compound 0.1 µM),relative viability ([4]; first compound 0.3162 µM),relative viability ([4]; first compound 1 µM),relative viability ([2]; first compound 0.2 µM)
NCI-H322M,0.533,0.565,0.446,0.498,0.454,0.95,1,0.96,0.954,0.897,1.1,0.894,0.894,0.917,0.917,0.859,0.729,0.851,0.922,–
NCI-H2085,0.519,0.469,0.524,0.476,0.498,0.93,0.868,0.847,0.875,0.851,0.92,0.725,0.797,0.74,0.867,0.982,0.919,0.901,0.995,0.918
RERF-LC-KJ,1.03,1.2,0.652,0.568,1.07,0.909,0.885,0.883,0.875,0.65,0.768,0.666,0.801,0.75,0.858,0.903,0.876,0.932,0.906,0.813
NCI-H1355,0.423,0.448,0.389,0.371,0.379,0.827,0.855,0.806,0.697,0.659,0.754,0.6,0.635,0.625,0.864,0.798,0.641,0.87,0.887,0.799
PC-14,0.511,0.703,–,0.516,0.417,1.09,1,0.961,0.927,0.691,0.956,–,0.692,0.748,0.918,0.97,0.904,0.94,1.02,–
NCI-H1755,0.471,0.454,0.461,0.43,0.446,0.982,0.967,0.841,0.834,0.765,0.792,0.83,0.739,0.705,0.948,0.977,0.958,1.01,0.965,0.965
NCI-H1651,0.512,0.561,0.52,0.495,0.495,1.06,0.969,0.958,0.733,0.511,0.709,0.533,0.571,0.622,0.937,1.01,0.895,0.939,0.953,1.06
NCI-H661,0.385,0.43,0.425,0.422,0.463,0.621,0.503,0.455,0.413,0.783,0.856,0.879,0.809,0.935,0.614,0.653,0.447,0.704,0.69,0.557

# Source: the supplement of paper PMC10307832
